# Measurements taken from patent US10131652B2, “Pyrimidinyloxy benzene derivatives as herbicides” (E. I. DU PONT DE NEMOURS AND COMPANY, priority 2014, dated 2018).
# Where two headings read alike, the source gives them in different places.
# Key:
# Test in all cases: Test D pre-/postemergence plant response
# Assay type in all cases: in vivo
# [1] = test system: giant foxtail (Setaria faberii); details: Setaria faberi, pre-emergence, Preemergence
# Method in brief: (§1)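 Visual injury scoring (0–100) at 13 to 15 days in greenhouse. Preemergence sprays on seeded loam/sand; postemergence sprays on 1–4 leaf plants.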
# [2] = test system: large (Lg) crabgrass (Digitaria sanguinalis); details: Digitaria sanguinalis; for pest or weed control at 16 g/ha: 16 g ai/ha; for pest or weed control at 31 g/ha: 31 g ai/ha; for pest or weed control at 62 g/ha: 62 g ai/ha; for pest or weed control at 125 g/ha: 125 g ai/ha
# Method in brief: as §1
# [3] = test system: oilseed rape (Brassica napus); details: Brassica napus; for plant injury at 16 g/ha: 16 g ai/ha; for plant injury at 31 g/ha: 31 g ai/ha; for plant injury at 62 g/ha: 62 g ai/ha; for plant injury at 125 g/ha: 125 g ai/ha
# Method in brief: as §1
# [4] = test system: pigweed (Amaranthus retroflexus); details: Amaranthus retroflexus; for pest or weed control at 16 g/ha: 16 g ai/ha; for pest or weed control at 31 g/ha: 31 g ai/ha; for pest or weed control at 62 g/ha: 62 g ai/ha; for pest or weed control at 125 g/ha: 125 g ai/ha
# Method in brief: as §1
# [5] = test system: ragweed (common ragweed, Ambrosia elatior); details: Ambrosia artemisiifolia; for pest or weed control at 16 g/ha: 16 g ai/ha; for pest or weed control at 31 g/ha: 31 g ai/ha; for pest or weed control at 62 g/ha: 62 g ai/ha; for pest or weed control at 125 g/ha: 125 g ai/ha
# Method in brief: as §1
# [6] = test system: yellow nutsedge (Cyperus esculentus); details: Cyperus; for pest or weed control at 16 g/ha: 16 g ai/ha; for pest or weed control at 31 g/ha: 31 g ai/ha; for pest or weed control at 62 g/ha: 62 g ai/ha; for pest or weed control at 125 g/ha: 125 g ai/ha
# Method in brief: as §1
# [7] = post-emergence, Postemergence, scale 0 to 100 (0 no effect, 100 complete control), read-out: Crabgrass, Large plant response rating
# [8] = post-emergence, Postemergence, scale 0 to 100, 0 no effect, 100 complete control, read-out: Plant response rating, Crabgrass, Large
# [9] = pre-emergence, Preemergence, scale 0 to 100 (0 no effect, 100 complete control), read-out: Plant response rating, Crabgrass, Large
# [10] = post-emergence, Postemergence, scale 0 to 100 (0 no effect, 100 complete control), read-out: Oilseed Rape plant response rating
# [11] = post-emergence, Postemergence, scale 0 to 100, 0 no effect, 100 complete control, read-out: Plant response rating, Oilseed Rape
# [12] = pre-emergence, Preemergence, scale 0 to 100 (0 no effect, 100 complete control), read-out: Plant response rating, Oilseed Rape
# [13] = post-emergence, Postemergence, scale 0 to 100 (0 no effect, 100 complete control), read-out: Pigweed plant response rating
# [14] = post-emergence, Postemergence, scale 0 to 100, 0 no effect, 100 complete control, read-out: Plant response rating, Pigweed
# [15] = pre-emergence, Preemergence, scale 0 to 100 (0 no effect, 100 complete control), read-out: Plant response rating, Pigweed
# [16] = post-emergence, Postemergence, scale 0 to 100 (0 no effect, 100 complete control), read-out: Ragweed plant response rating
# [17] = post-emergence, Postemergence, scale 0 to 100, 0 no effect, 100 complete control, read-out: Plant response rating, Ragweed
# [18] = pre-emergence, Preemergence, scale 0 to 100 (0 no effect, 100 complete control), read-out: Plant response rating, Ragweed
# [19] = post-emergence, Postemergence, scale 0 to 100 (0 no effect, 100 complete control), read-out: Nutsedge, Yellow plant response rating
# [20] = post-emergence, Postemergence, scale 0 to 100, 0 no effect, 100 complete control, read-out: Plant response rating, Nutsedge, Yellow
# [21] = pre-emergence, Preemergence, scale 0 to 100 (0 no effect, 100 complete control), read-out: Plant response rating, Nutsedge, Yellow
compound,measurement,setting,value
"FC(F)(F)c1cc(-c2ccccc2Oc2ncc(Cl)cn2)on1 [Compound 63, 5-chloro-2-[2-[3-(trifluoromethyl)-5-isoxazolyl]phenoxy]pyrimidine]",pest or weed control at 125 g/ha,"[1]; 125 g ai/ha, read-out: Plant response rating (scale 0 to 100), Foxtail, Giant",100%
same,pest or weed control at 16 g/ha,"[1]; 16 g ai/ha, scale 0 to 100 (0 no effect, 100 complete control), read-out: Plant response rating, Foxtail, Giant",30%
same,pest or weed control at 31 g/ha,"[1]; 31 g ai/ha, scale 0 to 100 (0 no effect, 100 complete control), read-out: Plant response rating, Foxtail, Giant",80%
same,pest or weed control at 62 g/ha,"[1]; 62 g ai/ha, scale 0 to 100 (0 no effect, 100 complete control), read-out: Plant response rating, Foxtail, Giant",98%
same,pest or weed control at 16 g/ha,[2]; [7],5%
same,pest or weed control at 31 g/ha,[2]; [7],5%
same,pest or weed control at 62 g/ha,[2]; [8],10%
same,pest or weed control at 125 g/ha,[2]; [8],35%
same,pest or weed control at 125 g/ha,"[2]; pre-emergence, Preemergence, read-out: Plant response rating (scale 0 to 100), Crabgrass, Large",100%
same,pest or weed control at 16 g/ha,[2]; [9],65%
same,pest or weed control at 31 g/ha,[2]; [9],98%
same,pest or weed control at 62 g/ha,[2]; [9],98%
same,plant injury at 16 g/ha,[3]; [10],60%
same,plant injury at 31 g/ha,[3]; [10],90%
same,plant injury at 62 g/ha,[3]; [11],98%
same,plant injury at 125 g/ha,[3]; [11],100%
same,plant injury at 125 g/ha,"[3]; pre-emergence, Preemergence, read-out: Plant response rating (scale 0 to 100), Oilseed Rape",98%
same,plant injury at 16 g/ha,[3]; [12],70%
same,plant injury at 31 g/ha,[3]; [12],98%
same,plant injury at 62 g/ha,[3]; [12],98%
same,pest or weed control at 16 g/ha,[4]; [13],85%
same,pest or weed control at 31 g/ha,[4]; [13],85%
same,pest or weed control at 62 g/ha,[4]; [14],90%
same,pest or weed control at 125 g/ha,[4]; [14],95%
same,pest or weed control at 125 g/ha,"[4]; pre-emergence, Preemergence, read-out: Plant response rating (scale 0 to 100), Pigweed",100%
same,pest or weed control at 16 g/ha,[4]; [15],95%
same,pest or weed control at 31 g/ha,[4]; [15],100%
same,pest or weed control at 62 g/ha,[4]; [15],100%
same,pest or weed control at 16 g/ha,[5]; [16],10%
same,pest or weed control at 31 g/ha,[5]; [16],40%
same,pest or weed control at 62 g/ha,[5]; [17],55%
same,pest or weed control at 125 g/ha,[5]; [17],55%
same,pest or weed control at 125 g/ha,"[5]; pre-emergence, Preemergence, read-out: Plant response rating (scale 0 to 100), Ragweed",70%
same,pest or weed control at 16 g/ha,[5]; [18],75%
same,pest or weed control at 31 g/ha,[5]; [18],20%
same,pest or weed control at 62 g/ha,[5]; [18],55%
same,pest or weed control at 16 g/ha,[6]; [19],0%
same,pest or weed control at 31 g/ha,[6]; [19],0%
same,pest or weed control at 62 g/ha,[6]; [20],5%
same,pest or weed control at 125 g/ha,[6]; [20],5%
same,pest or weed control at 125 g/ha,"[6]; pre-emergence, Preemergence, read-out: Plant response rating (scale 0 to 100), Nutsedge, Yellow",5%
same,pest or weed control at 16 g/ha,[6]; [21],0%
same,pest or weed control at 31 g/ha,[6]; [21],0%
same,pest or weed control at 62 g/ha,[6]; [21],0%
